Source: patent US4245106A, “Process for the preparation of 1-alkyl-3-aryl-4-pyrazolecarboxylates” (Monsanto Company, priority 1979, dated 1981)

How the values were obtained:
Type in all cases: in vivo
[1] = system: Canada Thistle; assay: pre-emergent herbicidal activity test; conditions: *11.2 Kg/Ha; observed approximately 14 days after treatment
How it was run: (§1)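 Seeds or vegetative propagules placed on compacted top soil, then covered with soil mixed with a known amount of active ingredient (solvent or wettable powder). Pans kept in greenhouse, bottom-watered; phytotoxicity scored per species with a rating code.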

[2] = system: Lambsquarter; assay: pre-emergent herbicidal activity test; conditions: *11.2 Kg/Ha; observed approximately 14 days after treatment
How it was run: as §1

[3] = system: Velvetleaf; assay: pre-emergent herbicidal activity test; conditions: *11.2 Kg/Ha; observed approximately 14 days after treatment
How it was run: as §1

[4] = system: Bromus tectorum; assay: pre-emergent herbicidal activity test; conditions: *11.2 Kg/Ha; observed approximately 14 days after treatment
How it was run: as §1

[5] = system: Morningglory; assay: pre-emergent herbicidal activity test; conditions: *11.2 Kg/Ha; observed approximately 14 days after treatment
How it was run: as §1

[6] = system: Barnyard grass; assay: pre-emergent herbicidal activity test; conditions: *11.2 Kg/Ha; observed approximately 14 days after treatment
How it was run: as §1

[7] = system: Smartweed; assay: pre-emergent herbicidal activity test; conditions: *11.2 Kg/Ha; observed approximately 14 days after treatment
How it was run: as §1

[8] = system: Johnsongrass; assay: pre-emergent herbicidal activity test; conditions: *11.2 Kg/Ha; observed approximately 14 days after treatment
How it was run: as §1

[9] = system: Quackgrass; assay: pre-emergent herbicidal activity test; conditions: *11.2 Kg/Ha; observed approximately 14 days after treatment
How it was run: as §1

[10] = system: Cocklebur; assay: pre-emergent herbicidal activity test; conditions: *11.2 Kg/Ha; observed approximately 14 days after treatment
How it was run: as §1

[11] = system: Nutsedge; assay: pre-emergent herbicidal activity test; conditions: *11.2 Kg/Ha; observed approximately 14 days after treatment
How it was run: as §1

[12] = system: Canada Thistle; assay: post-emergent herbicidal activity test; conditions: 11.2 Kg/Ha; approximately four weeks later
How it was run: (§2)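 Two- or three-week-old plants were sprayed with a solution or wettable powder suspension of active ingredient plus surfactant at the desired test rate. Plants were kept in a greenhouse, and effects were observed and recorded about four weeks later, unless otherwise noted, using a post-emergent herbicidal rating code.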

[13] = system: Lambsquarter; assay: post-emergent herbicidal activity test; conditions: 11.2 Kg/Ha; approximately four weeks later
How it was run: as §2

[14] = system: Velvetleaf; assay: post-emergent herbicidal activity test; conditions: 11.2 Kg/Ha; approximately four weeks later
How it was run: as §2

[15] = system: Bromus tectorum; assay: post-emergent herbicidal activity test; conditions: 11.2 Kg/Ha; approximately four weeks later
How it was run: as §2

[16] = system: Morningglory; assay: post-emergent herbicidal activity test; conditions: 11.2 Kg/Ha; approximately four weeks later
How it was run: as §2

[17] = system: Barnyard grass; assay: post-emergent herbicidal activity test; conditions: 11.2 Kg/Ha; approximately four weeks later
How it was run: as §2

[18] = system: Smartweed; assay: post-emergent herbicidal activity test; conditions: 11.2 Kg/Ha; approximately four weeks later
How it was run: as §2

[19] = system: Johnsongrass; assay: post-emergent herbicidal activity test; conditions: 11.2 Kg/Ha; approximately four weeks later
How it was run: as §2

[20] = system: Quackgrass; assay: post-emergent herbicidal activity test; conditions: 11.2 Kg/Ha; approximately four weeks later
How it was run: as §2

[21] = system: Cocklebur; assay: post-emergent herbicidal activity test; conditions: 11.2 Kg/Ha; approximately four weeks later
How it was run: as §2

[22] = system: Nutsedge; assay: post-emergent herbicidal activity test; conditions: 11.2 Kg/Ha; approximately four weeks later
How it was run: as §2
Further: ranges in brackets are in %.

Q: For `CCOC(=O)c1cn(C)nc1-c1ccc(OC)cc1` [Example 31], which “Pre-Emergent herbicidal rating, A Canada Thistle” value [1] is on record?
A: Its value is 0 (0-24).

Q: And the “Pre-Emergent herbicidal rating, E Lambsquarter” value [2]?
A: The value was 0 (0-24).

Q: And the “Pre-Emergent herbicidal rating, C Velvetleaf” value [3]?
A: Its value is 0 (0-24).

Q: And the “Pre-Emergent herbicidal rating, J Bromus tectorum” value [4]?
A: Its value is 0 (0-24).

Q: What about the “Pre-Emergent herbicidal rating, D Morningglory” value [5] of the same molecule?
A: The value was 0 (0-24).

Q: What about the “Pre-Emergent herbicidal rating, K Barnyard grass” value [6] of the same molecule?
A: Its value is 0 (0-24).

Q: What about the “Pre-Emergent herbicidal rating, F Smartweed” value [7] of the same molecule?
A: Its value is 0 (0-24).

Q: And the “Pre-Emergent herbicidal rating, I Johnsongrass” value [8]?
A: The value was 0 (0-24).

Q: What about the “Pre-Emergent herbicidal rating, H Quackgrass” value [9] of the same molecule?
A: The value was 0 (0-24).

Q: And the “Pre-Emergent herbicidal rating, B Cocklebur” value [10]?
A: Its value is 0 (0-24).

Q: And the “Pre-Emergent herbicidal rating, G Nutsedge” value [11]?
A: Its value is 0 (0-24).

Q: And the “Post-Emergent herbicidal rating, A Canada Thistle” value [12]?
A: Its value is 0 (0-24).

Q: And the “Post-Emergent herbicidal rating, E Lambsquarter” value [13]?
A: The value was 4 (100).

Q: And the “Post-Emergent herbicidal rating, C Velvetleaf” value [14]?
A: Its value is 1 (25-49).

Q: What about the “Post-Emergent herbicidal rating, J Bromus tectorum” value [15] of the same molecule?
A: Its value is 0 (0-24).

Q: And the “Post-Emergent herbicidal rating, D Morningglory” value [16]?
A: Its value is 1 (25-49).

Q: And the “Post-Emergent herbicidal rating, K Barnyard grass” value [17]?
A: The value was 1 (25-49).

Q: And the “Post-Emergent herbicidal rating, F Smartweed” value [18]?
A: The value was 4 (100).

Q: And the “Post-Emergent herbicidal rating, I Johnsongrass” value [19]?
A: Its value is 0 (0-24).

Q: And the “Post-Emergent herbicidal rating, H Quackgrass” value [20]?
A: Its value is 0 (0-24).

Q: And the “Post-Emergent herbicidal rating, B Cocklebur” value [21]?
A: The value was 0 (0-24).

Q: What about the “Post-Emergent herbicidal rating, G Nutsedge” value [22] of the same molecule?
A: The value was 0 (0-24).
